Entries after “also recorded” stand apart in the source; their conditions may differ.

The results in this text go back to paper PMC6315541, “Nile Tilapia Derived Antimicrobial Peptide TP4 Exerts Antineoplastic Activity Through Microtubule Disruption” (Marine Drugs, 2018).

Series [1] relates to microtubule network (α-Tubulin) in A549 cells. Description: Immunocytochemistry of microtubule network and peptide uptake in A549 cells. It counts as cell-based, human. To be noted: A549 cells; TP4 6.71 μM, 3 h; FITC-labeled mutants; Figure 6B. The procedure: To examine whether TP4 may affect microtubule dynamics, A549 cells were treated with TP4, and cytoskeletal elements were analyzed by immunocytochemistry (ICC). […] We then asked whether TP4 treatment may influence tubulin protein levels by performing Western blots on lysates from A549 cells that had been treated with vehicle or TP4. […] We next conducted a microtubule regrowth assay to further address whether TP4 may disrupt microtubule polymerization. TP4 was applied to A549 cells that had been treated with or without Nocodazole (20 μM) treatment for 6 h, which completely depolymerizes the microtubule network. The repolymerization of microtubules was then initialized by the addition of fresh recovery medium, and regrowth was analyzed by ICC.
While the reduced toxicity may result from impaired binding to tubulin, it is also possible that such effects may be caused by conformational changes in the TP4 mutants, see Supplementary Figure S1C,D, which prevent intracellular penetration. To test this possibility, ICC was conducted to evaluate the cellular localization and the effects on microtubules. […] For both Gly and Ala substitution mutants, FITC-labeled TP4 mutants were able to be taken up intracellularly, see Figure 6B, panels MT-1 to MT-6. However, the microtubule network was only affected in MT-1- and MT-4-treated cells and not the other mutant-treated groups, as shown in Figure 6B.
(§1) Figure 6 Loss of cancer-killing ability in TP4 mutants. (A) Cell viability in A549 cells was determined by the adenosine triphosphate (ATP) assay following treatment with varying doses of TP4 and TP4 mutants for 24 h. Multiple wells were analyzed for each assay. Results represent the mean ± SD. Statistical comparisons between groups were performed using two-way ANOVA: a, not significant; b, p < 0.05; d, p < 0.001. Statistical analyses are shown in Supplementary Table S1. (B) Cells were stained for TP4 (WT panel), FITC (MT-1 to MT-6 panels), α-Tubulin, and F-actin. Hoechst33342 was used for nuclei staining. Boxed regions are magnified in the furthest right panels. […] Bar: 20 μm.
Cells were stained with TP4 (1:1000), FITC (1:500, ThermoFisher Scientific, clone 1F8-1E4), α-Tubulin (1:500), and appropriate Alexa Flour conjugated secondary antibody (1:500; ThermoFisher Scientific, Eugene, OR, USA). Hochest33342 was used for nuclear staining, and Alexa Fluor 647-conjugated phalloidin (1:200, Thermo Fisher Scientific, Eugene, OR, USA) was used to stain F-actin. For the confocal microscopic analysis, samples were mounted with fluorescent mounting medium (ProLong Gold Antifade Reagent, ThermoFisher Scientific, Eugene, OR, USA) and images were obtained with a FV3000 laser-scanning confocal microscope (Olympus), using a 60 × objective lens (Plapon 60 × OSC2, N.A. 1.4, oil) with the 4′,6-diamidino-2-phenylindole (DAPI) ([…]), green fluorescent protein (GFP) (EX 470, EM 525 for enhanced GFP (EGFP)), and Cy5 ([…]) emission filters. FV31S software (Olympus, Tokyo, Japan) was used for image acquisition.

A further series has as its system A549 cells. The series can be described thus: Cell viability (CellTiter-Glo ATP assay) in A549 cells. To be noted: 24 h; for relative ATP levels (cell viability): CellTiter-Glo ATP assay, luminescence, mean ± SD of three independent assays, n ≥ 5 wells per dose; for cytotoxicity to A549 cells (in words): doses 3.35-20.12 µM, ATP assay, Figure 6A. Format: cell-based, human. How it is done:
as §1
The A549 cell line (Bioresource Collection and Research Center (BCRC) 60074) was purchased from the BCRC and cultured according to BCRC recommendations. For the cell viability and transfection assay, 4–5 × 10^3 cells were seeded into the wells of a 96-well plate and cultured overnight. Cells were then treated according to the indicated doses and times. Cell viability was quantified using the CellTiter-Glo® Luminescent Cell Viability Assay kit (ATP assay) (Madison, WI, USA) as previously described. The luminescent signal was measured using a photometer (SpectraMax® i3, Molecular Devices, Wals, Austria).
For the multi-well based assay, cells were plated at least in quadruplicate. Data were collected from independently repeated experiments (N ≥ 3) and were analyzed by Prism5 software (GraphPad Inc., La Jolla, CA, USA). Statistical significance was determined by a two-tailed Student’s t-test or one-way/two-way analysis of variance (ANOVA) with a Bonferroni post hoc test. Differences were considered statistically significant at p < 0.05. […]
Supplementary Table S1. Cellular toxicit y of TP 4 to A549 cells was evaluated b y cell viability. Results of statis tical tests on data in Figu re 6A are shown. Multiple wells were anal yzed for each ex periment (n ≥ 5 wells per do se). Results represent the mean ± SD from three independent assays. Statistical comparisons between mock versus TP4 treatment groups were performed using two -way ANOVA anal ysis with Bonferroni post-hoc test: a, not signi ficant; b, P < 0.05; c, P < 0.01; d, P < 0.001. […]
(A-G) Th e helical projection plot and s tructural model o f TP4 (A) and TP4 variants (MT-1 to MT-6, B-G ). The helical proj ecti on was produced b y an online helical wheel projection program (http://rzlab.ucr.edu/scripts/wheel/wheel.cgi). Amino acid residues are numbered and each amino acid is connected with lines to indicate its relative position along the helix. The hydrophobic residues are shown as diamonds ; h ydrophilic residues are circles. Residues with negative charge are shown as trian gles and positively charged residues are pentagons. Hydrophobicity is color coded. The
For orientation: Cellular ATP, detected with luciferase, serves as a proxy for viable cell number.

As for “MT-1: TP4 mutant, Phe1 to Gly (GIHHIIGGLFSAGKAIHRLIRRRRR)”, in series [1], the “effect on microtubule network (α-Tubulin ICC)” value is listed as “affected; also recorded: microtubule abnormalities were observed”. For the same substance, the “relative ATP levels (cell viability)” value with A549 cells (3.35 µM) is 0.931±0.160; in the series on A549 cells (5.03 µM) it was 1.044±0.280; in the series with A549 cells (6.71 µM), 0.852 ± 0.145; in the series on A549 cells (20.12 µM) it was 0.003±0.001. Also, the “cytotoxicity to A549 cells (in words)” value in the series with A549 cells is “decreased cytotoxicity”.
Turning to “MT-4: TP4 mutant, Phe1 to Ala (AIHHIIGGLFSAGKAIHRLIRRRRR)”, in series [1], the “effect on microtubule network (α-Tubulin ICC)” value is listed as “affected; also recorded: microtubule abnormalities were observed”. Besides, the “relative ATP levels (cell viability)” value in the series on A549 cells (3.35 µM) is 0.454±0.169; in the series with A549 cells (5.03 µM) it was 0.241±0.094; in the series with A549 cells (6.71 µM) it was 0.070±0.045; in the series with A549 cells (20.12 µM), 0.001±0.007. Moreover, in the series on A549 cells, the “cytotoxicity to A549 cells (in words)” value is “strongly cytotoxic”.
